Source: article PMC12210654, “Palazestrant, a novel oral Complete Estrogen Receptor Antagonist (CERAN) and Selective Estrogen Receptor Degrader (SERD), in patients with ER+/HER2− advanced or metastatic breast cancer: phase 1/2 study results” (Breast Cancer Research : BCR, 2025)

Experiment: Safety: adverse events (NCI CTCAE v5.0), electrocardiograms
Format: in vivo, human
Conditions: phase 1a; for TEAE Neutropenia, Toxicity Grade All: includes neutropenia and neutrophil count decreased
Method: Safety assessments included the monitoring of AEs, clinical laboratory parameters, electrocardiograms, and vital signs. AE severity was graded according to the National Cancer Institute Common Terminology Criteria for Adverse Events (version 5.0).
All DLT analyses (phase 1a) were performed in patients enrolled in the study during cycle 1 and who either received 75% of the planned palazestrant doses or experienced a DLT during cycle 1. All PK analyses were performed in patients who received at least 1 dose of palazestrant and had adequate postbaseline PK samples for characterization of PK parameters. All safety analyses were performed and PFS assessed in patients who received at least 1 dose of palazestrant. Clinical response (CR or PR) was assessed in patients who received at least 1 cycle of palazestrant, had measurable disease at baseline, and had at least 1 postbaseline tumor assessment. CBR was assessed in patients who received at least 1 cycle of palazestrant, had at least 1 postbaseline tumor assessment, and started their first dose at least 24 weeks before data cutoff. Patients who discontinued study treatment without radiographic progression within 24 weeks from the first dose were not included in the CBR analysis. PK parameters were estimated using conventional noncompartmental methods. For CBR, estimates were accompanied by 2-sided 95% confidence intervals (95% CIs). For PFS, Kaplan–Meier analyses were used to determine medians, event-free rates, and 95% CIs. For all other outcomes, categorical data were analyzed using frequencies and percentages, and continuous data were analyzed using means (standard deviation) or medians (range), as appropriate.

CCCN1CC(Oc2ccc([C@@H]3c4[nH]c5ccccc5c4C[C@@H](C)N3CC(C)(C)F)cc2)C1 [palazestrant, Palazestrant]
3 (42.9): TEAE Decreased appetite, Toxicity Grade All (210 mg (N=7)) | TEAE Constipation, Toxicity Grade All (300 mg (N=7)) | TEAE Decreased appetite, Toxicity Grade All (300 mg (N=7)) | TEAE Neutropenia, Toxicity Grade All (300 mg (N=7))
14 (33.3): TEAE Fatigue, Toxicity Grade All (Total (N=42))
6 (85.7): TEAE Nausea, Toxicity Grade All (300 mg (N=7))
25 (59.5): TEAE Nausea, Toxicity Grade All (Total (N=42))
2 (40.0): TEAE Vomiting, Toxicity Grade All (150 mg (N=5)) | TEAE Neutropenia, Toxicity Grade All (150 mg (N=5))
1 (16.7): TEAE Neutropenia, Toxicity Grade All (60 mg (N=6)) | TEAE Constipation, Toxicity Grade All (90 mg (N=6)) | TEAE Decreased appetite, Toxicity Grade All (90 mg (N=6)) | TEAE Headache, Toxicity Grade All (90 mg (N=6)) | TEAE Vomiting, Toxicity Grade All (90 mg (N=6)) | TEAE Decreased appetite, Toxicity Grade All (120 mg (N=6)) | TEAE Diarrhea, Toxicity Grade All (120 mg (N=6)) | TEAE Headache, Toxicity Grade All (120 mg (N=6)) | TEAE Maculopapular rash, Toxicity Grade All (120 mg (N=6)) | TEAE Neutropenia, Toxicity Grade G4 (120 mg (N=6)) | TEAE Vomiting, Toxicity Grade G3 (120 mg (N=6))
1 (14.3): TEAE Vomiting, Toxicity Grade All (210 mg (N=7)) | TEAE Neutropenia, Toxicity Grade All (210 mg (N=7)) | TEAE Diarrhea, Toxicity Grade All (300 mg (N=7)) | TEAE Nausea, Toxicity Grade G3 (300 mg (N=7)) | TEAE Neutropenia, Toxicity Grade G4 (300 mg (N=7))
5 (83.3): TEAE Nausea, Toxicity Grade All (120 mg (N=6))
2 (33.3): TEAE Nausea, Toxicity Grade All (90 mg (N=6)) | TEAE Fatigue, Toxicity Grade All (120 mg (N=6)) | TEAE Vomiting, Toxicity Grade All (120 mg (N=6)) | TEAE Neutropenia, Toxicity Grade All (120 mg (N=6))
4 (9.5): TEAE Neutropenia, Toxicity Grade G4 (Total (N=42))
4 (57.1): TEAE Constipation, Toxicity Grade All (210 mg (N=7)) | TEAE Nausea, Toxicity Grade All (210 mg (N=7)) | TEAE Fatigue, Toxicity Grade All (300 mg (N=7)) | TEAE Headache, Toxicity Grade All (300 mg (N=7))
1 (2.4): TEAE Fatigue, Toxicity Grade G3 (Total (N=42)) | TEAE Vomiting, Toxicity Grade G3 (Total (N=42))
0: TEAE Vomiting, Toxicity Grade G3 (60 mg (N=6)) | TEAE Vomiting, Toxicity Grade G4 (60 mg (N=6)) | TEAE Constipation, Toxicity Grade G3 (90 mg (N=6)) | TEAE Constipation, Toxicity Grade G4 (90 mg (N=6)) | TEAE Decreased appetite, Toxicity Grade G3 (90 mg (N=6)) | TEAE Decreased appetite, Toxicity Grade G4 (90 mg (N=6)) | TEAE Diarrhea, Toxicity Grade All (90 mg (N=6)) | TEAE Diarrhea, Toxicity Grade G3 (90 mg (N=6)) | TEAE Diarrhea, Toxicity Grade G4 (90 mg (N=6)) | TEAE Fatigue, Toxicity Grade All (90 mg (N=6)) | TEAE Fatigue, Toxicity Grade G3 (90 mg (N=6)) | TEAE Fatigue, Toxicity Grade G4 (90 mg (N=6)) | TEAE Headache, Toxicity Grade G3 (90 mg (N=6)) | TEAE Headache, Toxicity Grade G4 (90 mg (N=6)) | TEAE Maculopapular rash, Toxicity Grade All (90 mg (N=6)) | TEAE Maculopapular rash, Toxicity Grade G3 (90 mg (N=6)) | TEAE Maculopapular rash, Toxicity Grade G4 (90 mg (N=6)) | TEAE Nausea, Toxicity Grade G3 (90 mg (N=6)) | TEAE Nausea, Toxicity Grade G4 (90 mg (N=6)) | TEAE Neutropenia, Toxicity Grade G3 (90 mg (N=6)) | TEAE Neutropenia, Toxicity Grade G4 (90 mg (N=6)) | TEAE Vomiting, Toxicity Grade G3 (90 mg (N=6)) | TEAE Vomiting, Toxicity Grade G4 (90 mg (N=6)) | TEAE Neutropenia, Toxicity Grade All (90 mg (N=6)) | TEAE Constipation, Toxicity Grade All (120 mg (N=6)) | TEAE Constipation, Toxicity Grade G3 (120 mg (N=6)) | TEAE Constipation, Toxicity Grade G4 (120 mg (N=6)) | TEAE Decreased appetite, Toxicity Grade G3 (120 mg (N=6)) | TEAE Decreased appetite, Toxicity Grade G4 (120 mg (N=6)) | TEAE Diarrhea, Toxicity Grade G3 (120 mg (N=6)) | TEAE Diarrhea, Toxicity Grade G4 (120 mg (N=6)) | TEAE Fatigue, Toxicity Grade G3 (120 mg (N=6)) | TEAE Fatigue, Toxicity Grade G4 (120 mg (N=6)) | TEAE Headache, Toxicity Grade G3 (120 mg (N=6)) | TEAE Headache, Toxicity Grade G4 (120 mg (N=6)) | TEAE Maculopapular rash, Toxicity Grade G3 (120 mg (N=6)) | TEAE Maculopapular rash, Toxicity Grade G4 (120 mg (N=6)) | TEAE Nausea, Toxicity Grade G3 (120 mg (N=6)) | TEAE Nausea, Toxicity Grade G4 (120 mg (N=6)) | TEAE Neutropenia, Toxicity Grade G3 (120 mg (N=6)) | TEAE Vomiting, Toxicity Grade G4 (120 mg (N=6)) | TEAE Constipation, Toxicity Grade All (150 mg (N=5)) | TEAE Constipation, Toxicity Grade G3 (150 mg (N=5)) | TEAE Constipation, Toxicity Grade G4 (150 mg (N=5)) | TEAE Decreased appetite, Toxicity Grade G3 (150 mg (N=5)) | TEAE Decreased appetite, Toxicity Grade G4 (150 mg (N=5)) | TEAE Diarrhea, Toxicity Grade G3 (150 mg (N=5)) | TEAE Diarrhea, Toxicity Grade G4 (150 mg (N=5)) | TEAE Fatigue, Toxicity Grade G4 (150 mg (N=5)) | TEAE Headache, Toxicity Grade G3 (150 mg (N=5)) | TEAE Headache, Toxicity Grade G4 (150 mg (N=5)) | TEAE Maculopapular rash, Toxicity Grade All (150 mg (N=5)) | TEAE Maculopapular rash, Toxicity Grade G3 (150 mg (N=5)) | TEAE Maculopapular rash, Toxicity Grade G4 (150 mg (N=5)) | TEAE Nausea, Toxicity Grade G4 (150 mg (N=5)) | TEAE Neutropenia, Toxicity Grade G3 (150 mg (N=5)) | TEAE Vomiting, Toxicity Grade G3 (150 mg (N=5)) | TEAE Vomiting, Toxicity Grade G4 (150 mg (N=5)) | TEAE Constipation, Toxicity Grade G3 (210 mg (N=7)) | TEAE Constipation, Toxicity Grade G4 (210 mg (N=7)) | TEAE Decreased appetite, Toxicity Grade G3 (210 mg (N=7)) | TEAE Decreased appetite, Toxicity Grade G4 (210 mg (N=7)) | TEAE Diarrhea, Toxicity Grade All (210 mg (N=7)) | TEAE Diarrhea, Toxicity Grade G3 (210 mg (N=7)) | TEAE Diarrhea, Toxicity Grade G4 (210 mg (N=7)) | TEAE Fatigue, Toxicity Grade G3 (210 mg (N=7)) | TEAE Fatigue, Toxicity Grade G4 (210 mg (N=7)) | TEAE Headache, Toxicity Grade All (210 mg (N=7)) | TEAE Headache, Toxicity Grade G3 (210 mg (N=7)) | TEAE Headache, Toxicity Grade G4 (210 mg (N=7)) | TEAE Maculopapular rash, Toxicity Grade G3 (210 mg (N=7)) | TEAE Maculopapular rash, Toxicity Grade G4 (210 mg (N=7)) | TEAE Nausea, Toxicity Grade G3 (210 mg (N=7)) | TEAE Nausea, Toxicity Grade G4 (210 mg (N=7)) | TEAE Neutropenia, Toxicity Grade G3 (210 mg (N=7)) | TEAE Neutropenia, Toxicity Grade G4 (210 mg (N=7)) | TEAE Vomiting, Toxicity Grade G3 (210 mg (N=7)) | TEAE Vomiting, Toxicity Grade G4 (210 mg (N=7)) | TEAE Constipation, Toxicity Grade G3 (300 mg (N=7)) | TEAE Constipation, Toxicity Grade G4 (300 mg (N=7)) | TEAE Decreased appetite, Toxicity Grade G3 (300 mg (N=7)) | TEAE Decreased appetite, Toxicity Grade G4 (300 mg (N=7)) | TEAE Diarrhea, Toxicity Grade G3 (300 mg (N=7)) | TEAE Diarrhea, Toxicity Grade G4 (300 mg (N=7)) | TEAE Fatigue, Toxicity Grade G3 (300 mg (N=7)) | TEAE Fatigue, Toxicity Grade G4 (300 mg (N=7)) | TEAE Headache, Toxicity Grade G3 (300 mg (N=7)) | TEAE Headache, Toxicity Grade G4 (300 mg (N=7)) | TEAE Maculopapular rash, Toxicity Grade G3 (300 mg (N=7)) | TEAE Maculopapular rash, Toxicity Grade G4 (300 mg (N=7)) | TEAE Nausea, Toxicity Grade G4 (300 mg (N=7)) | TEAE Neutropenia, Toxicity Grade G3 (300 mg (N=7)) | TEAE Vomiting, Toxicity Grade G3 (300 mg (N=7)) | TEAE Vomiting, Toxicity Grade G4 (300 mg (N=7)) | TEAE Constipation, Toxicity Grade G3 (Total (N=42)) | TEAE Constipation, Toxicity Grade G4 (Total (N=42)) | TEAE Decreased appetite, Toxicity Grade G3 (Total (N=42)) | TEAE Decreased appetite, Toxicity Grade G4 (Total (N=42)) | TEAE Diarrhea, Toxicity Grade G3 (Total (N=42)) | TEAE Diarrhea, Toxicity Grade G4 (Total (N=42)) | TEAE Fatigue, Toxicity Grade G4 (Total (N=42)) | TEAE Headache, Toxicity Grade G3 (Total (N=42)) | TEAE Headache, Toxicity Grade G4 (Total (N=42)) | TEAE Maculopapular rash, Toxicity Grade G3 (Total (N=42)) | TEAE Maculopapular rash, Toxicity Grade G4 (Total (N=42)) | TEAE Nausea, Toxicity Grade G4 (Total (N=42)) | TEAE Neutropenia, Toxicity Grade G3 (Total (N=42)) | TEAE Vomiting, Toxicity Grade G4 (Total (N=42))
9 (21.4): TEAE Headache, Toxicity Grade All (Total (N=42))
1 (20.0): TEAE Decreased appetite, Toxicity Grade All (150 mg (N=5)) | TEAE Diarrhea, Toxicity Grade All (150 mg (N=5)) | TEAE Fatigue, Toxicity Grade All (150 mg (N=5)) | TEAE Fatigue, Toxicity Grade G3 (150 mg (N=5)) | TEAE Headache, Toxicity Grade All (150 mg (N=5)) | TEAE Nausea, Toxicity Grade G3 (150 mg (N=5)) | TEAE Neutropenia, Toxicity Grade G4 (150 mg (N=5))
2 (4.8): TEAE Nausea, Toxicity Grade G3 (Total (N=42))
13 (31.0): TEAE Vomiting, Toxicity Grade All (Total (N=42))
5 (71.4): TEAE Vomiting, Toxicity Grade All (300 mg (N=7))
10 (23.8): TEAE Constipation, Toxicity Grade All (Total (N=42)) | TEAE Decreased appetite, Toxicity Grade All (Total (N=42)) | TEAE Neutropenia, Toxicity Grade All (Total (N=42))
7 (16.7): TEAE Diarrhea, Toxicity Grade All (Total (N=42)) | TEAE Maculopapular rash, Toxicity Grade All (Total (N=42))
2 (28.6): TEAE Fatigue, Toxicity Grade All (210 mg (N=7)) | TEAE Maculopapular rash, Toxicity Grade All (210 mg (N=7)) | TEAE Maculopapular rash, Toxicity Grade All (300 mg (N=7))
4 (80.0): TEAE Nausea, Toxicity Grade All (150 mg (N=5))
